Where “and” joins values, the source holds several entries; their conditions need not be identical. Equal entries are not always repeated. Where two headings read alike, the source gives them in different places.
Biological target: HIV-1LAI envelope gp120 (Human immunodeficiency virus type 1 group M subtype B, UniProt P03377)
Assay type: binding
Conditions: for number of radioactive decays (counts) counted: human CD4 21-mer scan, empty control 2075; for Binding Results For Window Length (counts bound-background), 9: 9-mer starting at the first residue of the printed sequence; for Binding Results For Window Length (counts bound-background), 12: 12-mer starting at the first residue of the printed sequence; for Counts per 20′ Average-background: CCR5 18-mer scan; for Counts per 20′ Average-background / percentage of binding of mutant polypeptide compared to wild-type polypeptide, gp120: radiolabeled HIV-1LAI gp120; for Relative % of Control: mean of two syntheses and binding experiments ± average deviation, wild-type = 100%; for percentage of binding of mutant polypeptide compared to wild-type polypeptide, gp120: CCR5 alanine mutant peptide
[1] = Panel B, 15-mers and 18-mers of CD4, empty control 575
[2] = Panel F, sequential alanine replacements of CD4 polypeptides, duplicate series, empty control 569
[3] = Panel G, alanine replacements and serial truncations (Z) of CD4 polypeptides, empty control 580
[4] = Panel D, 9-mers and 12-mers of CD4, empty control […]
[5] = Panel E, 9-mers and 12-mers of CD4, empty control 571
[6] = STRL33 amino terminus, background subtracted
[7] = Panel C, 15-mers and 18-mers of CD4, empty control 556
[8] = STRL33 18-mer scan, background subtracted, first of two count columns
[9] = STRL33 18-mer scan, background subtracted, second of two count columns
[10] = CXCR4 18-mer scan, background subtracted, empty control 0
[11] = CXCR4 18-mer scan, empty control 412

THLLQGQSLTLTLES
COUNTS of radiolabeled gp120 retained [1]: 1874 counts
COUNTS of radiolabeled gp120 retained [2]: 7756 counts and 6545 counts and 4787 counts and 5947 counts
COUNTS of radiolabeled gp120 retained [3]: 10850 counts and 9756 counts

DTYICEVED
COUNTS of radiolabeled gp120 retained [4]: 1043 counts

FIGLGIFFCVRCRHRRRQAER
number of radioactive decays (counts) counted: 1900 counts

AFQKASSIV
COUNTS of radiolabeled gp120 retained [5]: 595 counts

QEEHQAFLQFSK
Binding Results For Window Length (counts bound-background), 9 [6]: 1109 counts
Binding Results For Window Length (counts bound-background), 12 [6]: 5672 counts

KRHRAVRLIFTIMIVYFL [CCR5 segment 229-]
Counts per 20′ Average-background (background subtracted): 36 counts per 20′

ILKTLLRCRNEKKRHRAV
Counts per 20′ Average-background (background subtracted): 19 counts per 20′

VSSPIYDINYYTSEPCQK [CCR5 segment 5-22]
Counts per 20′ Average-background (background subtracted): 383 counts per 20′

GQSLTLTLE
COUNTS of radiolabeled gp120 retained [4]: 777 counts

SIVYKKEGEQVEFSFPLA
COUNTS of radiolabeled gp120 retained [7]: 771 counts

MDYAVSSPIYDINYYTSE [CCR5 (1-18) variant Q4A]
Relative % of Control (CCR5 (1-18) alanine variants): 104 ± 7%
percentage of binding of mutant polypeptide compared to wild-type polypeptide, gp120: 104%

LLIWVISLLVSLPQIIYG [STRL33 segment 153-170]
radioactive counts recorded in twenty minutes [8]: 42.5 counts
radioactive counts recorded in twenty minutes [9]: 75.5 counts

ASSIVYKKEGEQVEFSFP
COUNTS of radiolabeled gp120 retained [7]: 701 counts

IIISKLSHSKGHQKRKAL
radioactive counts recorded in twenty minutes [10]: 157 counts
radioactive counts recorded in twenty minutes [11]: 569 counts

VEFKIDIVVLAF
COUNTS of radiolabeled gp120 retained [5]: 681 counts

VEDQKEEVQ
COUNTS of radiolabeled gp120 retained [4]: 521 counts

APYNIVLLLNTFQEFFGL [CCR5 segment 249-]
Counts per 20′ Average-background (background subtracted): 1962 counts per 20′

FHCCLNPILYAFLGAKFK [CXCR4 segment 293-310]
radioactive counts recorded in twenty minutes [10]: 123 counts
radioactive counts recorded in twenty minutes [11]: 535 counts

GMWQCLLSDSGQVLLESNIKV
number of radioactive decays (counts) counted: 4185 counts

MDYQVSSPIADINYYTSE [CCR5 (1-18) variant Y10A]
Relative % of Control (CCR5 (1-18) alanine variants): 19 ± 6%
percentage of binding of mutant polypeptide compared to wild-type polypeptide, gp120: 19.2%

IVVVKATKAYNQQAKRMT
radioactive counts recorded in twenty minutes [8]: 166.5 counts
radioactive counts recorded in twenty minutes [9]: 43.5 counts

MDYQVSSPAYDINYYTSE [CCR5 (1-18) variant printed 19A]
Relative % of Control (CCR5 (1-18) alanine variants): 24 ± 7%

SQKEGLHYTCSSHFPYSQ [CCR5 segment 169-]
Counts per 20′ Average-background (background subtracted): 304 counts per 20′

TVEKLTGSGELWWQA
COUNTS of radiolabeled gp120 retained [7]: 550 counts

ATQMTLGFFLPLLTMIVC [STRL33 segment 193-210]
radioactive counts recorded in twenty minutes [8]: 2365.5 counts
radioactive counts recorded in twenty minutes [9]: 2444.5 counts

LYAFLGAKFKTSAQHALT [CXCR4 segment 301-318]
radioactive counts recorded in twenty minutes [10]: 156 counts
radioactive counts recorded in twenty minutes [11]: 568 counts

IFTRSQKEGLHYTCSSHF
Counts per 20′ Average-background (background subtracted): 98 counts per 20′

NQKKVEFKIDIVVLA
COUNTS of radiolabeled gp120 retained [7]: 860 counts

SIYTSDNYTEEMGSGDYD [CXCR4 segment 5-22]
radioactive counts recorded in twenty minutes [10]: 71 counts
radioactive counts recorded in twenty minutes [11]: 483 counts

QEAPERASSVYTRSTGEQ [CCR5 segment 329-]
Counts per 20′ Average-background (background subtracted): 84 counts per 20′

MEGISIYTSDNYTEEMGA
Relative % of Control (CXCR4 (1-18) alanine variants): 79 ± 1%

LPTIYSIIFLTGIVGNGL [CXCR4 segment 41-58]
radioactive counts recorded in twenty minutes [10]: 118 counts
radioactive counts recorded in twenty minutes [11]: 530 counts

AFTVEKLTG
COUNTS of radiolabeled gp120 retained [5]: 517 counts

KEGEQVEFS
COUNTS of radiolabeled gp120 retained [5]: 595 counts

FQHIMVGLILPGIVILSC
radioactive counts recorded in twenty minutes [10]: 170 counts
radioactive counts recorded in twenty minutes [11]: 582 counts

LQGQSLTLT
COUNTS of radiolabeled gp120 retained [4]: 501 counts

LAFQKASSIVYKKEGEQVEFS
COUNTS of radiolabeled gp120 retained (Panel A, 21-mers of CD4, empty control 515 and 617): 1410 counts

LKFRKNFWKLVKDIGCLP [STRL33 segment 293-310]
radioactive counts recorded in twenty minutes [8]: 920.5 counts
radioactive counts recorded in twenty minutes [9]: 957.5 counts

SFPLAFTVEKLTGSG
COUNTS of radiolabeled gp120 retained [7]: 565 counts

IKNLKIEDSDTY
COUNTS of radiolabeled gp120 retained [4]: 574 counts

GSGDYDSMKEPCFREENA [CXCR4 segment 17-34]
radioactive counts recorded in twenty minutes [10]: −28 counts
radioactive counts recorded in twenty minutes [11]: 384 counts

KLQSLTDVFLVNLPLADL [STRL33 segment 61-78]
radioactive counts recorded in twenty minutes [8]: 412.5 counts
radioactive counts recorded in twenty minutes [9]: 348.5 counts

FQKASSIVYKKEGEQ
COUNTS of radiolabeled gp120 retained [7]: 637 counts

ICEVEDQKEEVQLLVFGL
COUNTS of radiolabeled gp120 retained [1]: 3898 counts

WVVAVFASLPGIIFTRSQ [CCR5 segment 153-]
Counts per 20′ Average-background (background subtracted): 87 counts per 20′

FKIDIVVLA
COUNTS of radiolabeled gp120 retained [5]: 568 counts

FKIDIVVLAFQK
COUNTS of radiolabeled gp120 retained [5]: 736 counts

HEDYGFSSFNDSSQEEHQ
Binding Results For Window Length (counts bound-background), 9 [6]: 729 counts
Binding Results For Window Length (counts bound-background), 12 [6]: 1077 counts
Binding Results For Window Length (counts bound-background), 15 (STRL33 amino terminus, 15-mer starting at the first residue of the printed sequence, background subtracted): 947 counts
Binding Results For Window Length (counts bound-background), 18 (STRL33 amino terminus, 18-mer starting at the first residue of the printed sequence, background subtracted): 537 counts

NFPLIIKNL
COUNTS of radiolabeled gp120 retained [4]: 561 counts

MDYQVSSPIYDINYYTAE
Relative % of Control (CCR5 (1-18) alanine variants): 64 ± 6%

EEVQLLVFALTANSD
COUNTS of radiolabeled gp120 retained [2]: 19348 counts and 18254 counts

TIMVTEAIAYLRACLNPV [STRL33 segment 269-286]
radioactive counts recorded in twenty minutes [8]: 140.5 counts
radioactive counts recorded in twenty minutes [9]: 272.5 counts

SCYCIIISKLSHSKGHQK
radioactive counts recorded in twenty minutes [10]: 259 counts
radioactive counts recorded in twenty minutes [11]: 671 counts

EKVVYVGVWIPALLLTIP [CXCR4 segment 153-170]
radioactive counts recorded in twenty minutes [10]: 147 counts
radioactive counts recorded in twenty minutes [11]: 559 counts

IIKQGCEFENTVEKWISI [CXCR4 segment 269-286]
radioactive counts recorded in twenty minutes [10]: 106 counts
radioactive counts recorded in twenty minutes [11]: 518 counts

EGEQVEFSFPLA
COUNTS of radiolabeled gp120 retained [5]: 1456 counts

EEVQLLVFGLTANSDTHL
COUNTS of radiolabeled gp120 retained [1]: 783 counts

KLLAEKVVYVGVWIPALL
radioactive counts recorded in twenty minutes [10]: 89 counts
radioactive counts recorded in twenty minutes [11]: 501 counts

SDNYTEEMGSGDYDSMKE [CXCR4 segment 9-26]
radioactive counts recorded in twenty minutes [10]: 43 counts
radioactive counts recorded in twenty minutes [11]: 455 counts

VLGGVAGLLLFIGLGIFFCVR [human CD4 401-421]
number of radioactive decays (counts) counted: 3738 counts

KEPCFREENANFNKIFLP [CXCR4 segment 25-42]
radioactive counts recorded in twenty minutes [10]: 252 counts
radioactive counts recorded in twenty minutes [11]: 664 counts

FLFWAPYNIVLLLNTFQE [CCR5 segment 245-]
Counts per 20′ Average-background (background subtracted): 616 counts per 20′

GEQVAFSFPLAFTVE
COUNTS of radiolabeled gp120 retained [3]: 16668 counts and 13930 counts

QNQKKVEFKIDI
COUNTS of radiolabeled gp120 retained [5]: 559 counts

GEQVEFSFPLAATVE
COUNTS of radiolabeled gp120 retained [3]: 10130 counts and 9572 counts

LAFTVEKLT
COUNTS of radiolabeled gp120 retained [5]: 501 counts

EEVQLAVFGLTANSD
COUNTS of radiolabeled gp120 retained [2]: 11954 counts and 13690 counts

EQVEFSFPLAFTVEK
COUNTS of radiolabeled gp120 retained [7]: 4135 counts

YTINFYTSMLILTCITVD
radioactive counts recorded in twenty minutes [8]: 351.5 counts
radioactive counts recorded in twenty minutes [9]: 510.5 counts

From patent US20030068615A1, “Polypeptides that bind HIV gp120 and related nucleic acids, antibodies, compositions, and methods of use” (priority 1999, published 2003)
